Patent publication US6518271B1, “1H-imidazo[4,5-d]pyridazin-7-one, and corresponding thiones as corticotropin releasing factor (CRF) receptor ligands” (Bristol-Myers Squibb Company, priority 1998, dated 2003)

In the case of `CCC(C)C(CC)C1=NC2=C(c3ccc(Cl)cc3Cl)N=NC(=O)C2=N1` (stereo not shown) [Example 1, 4-(2,4-dichlorophenyl)-2-ethyl-1-(1-ethyl)propyl-imidazo[4,5-d]pyridazin-7-one], the melting point is reported as 246 to 247 °C.
